Test results as given in PubChem BioAssay (NCI).
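Step 1: Grow cells in 96-well plates. Step 2: Expose to compound for 48 hours at 5 concentrations. Step 3: Interpolate endpoints linearly; if unreached, use highest concentration. TGI is the concentration that stops growth completely.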

Experiments:
Experiment in all cases: NCI tumour cell line growth inhibition, 48 h
MALME-3M melanoma = system: MALME-3M melanoma
UACC-62 melanoma = system: UACC-62 melanoma
NCI-H23 lung = system: NCI-H23 lung
NCI/ADR-RES ovarian = system: NCI/ADR-RES ovarian
MDA-MB-231 breast = system: MDA-MB-231 breast
SF-295 CNS = system: SF-295 CNS
LOX IMVI melanoma = system: LOX IMVI melanoma
IGROV1 ovarian = system: IGROV1 ovarian
HT29 colon = system: HT29 colon
HCC-2998 colon = system: HCC-2998 colon
PC-3 prostate = system: PC-3 prostate
NCI-H460 lung = system: NCI-H460 lung
U251 CNS = system: U251 CNS
COLO 205 colon = system: COLO 205 colon
CCRF-CEM leukemia = system: CCRF-CEM leukemia
SK-OV-3 ovarian = system: SK-OV-3 ovarian
HCT-15 colon = system: HCT-15 colon
SK-MEL-5 melanoma = system: SK-MEL-5 melanoma
MDA-N = system: MDA-N
HL-60(TB) leukemia = system: HL-60(TB) leukemia
OVCAR-4 ovarian = system: OVCAR-4 ovarian
MOLT-4 leukemia = system: MOLT-4 leukemia
A498 renal = system: A498 renal
SF-268 CNS = system: SF-268 CNS
M14 melanoma = system: M14 melanoma
MDA-MB-435 = system: MDA-MB-435
HOP-92 NSCLC = system: HOP-92 NSCLC
SNB-19 CNS = system: SNB-19 CNS
SW-620 colon = system: SW-620 colon
OVCAR-5 ovarian = system: OVCAR-5 ovarian
SN12C renal = system: SN12C renal
CAKI-1 renal = system: CAKI-1 renal
T-47D breast = system: T-47D breast
HCT-116 colon = system: HCT-116 colon
KM12 colon = system: KM12 colon
OVCAR-3 ovarian = system: OVCAR-3 ovarian
RPMI-8226 leukemia = system: RPMI-8226 leukemia
HS 578T breast = system: HS 578T breast
SF-539 CNS = system: SF-539 CNS
DU-145 prostate = system: DU-145 prostate
UACC-257 melanoma = system: UACC-257 melanoma
TK-10 renal = system: TK-10 renal
OVCAR-8 ovarian = system: OVCAR-8 ovarian
SK-MEL-28 melanoma = system: SK-MEL-28 melanoma
K-562 leukemia = system: K-562 leukemia
NCI-H226 lung = system: NCI-H226 lung
HOP-62 NSCLC = system: HOP-62 NSCLC
A549 NSCLC = system: A549 NSCLC
MCF7 breast = system: MCF7 breast
EKVX NSCLC = system: EKVX NSCLC
UO-31 renal = system: UO-31 renal
786-0 renal = system: 786-0 renal
ACHN renal = system: ACHN renal
RXF 393 renal = system: RXF 393 renal
SK-MEL-2 melanoma = system: SK-MEL-2 melanoma
SNB-75 CNS = system: SNB-75 CNS
NCI-H522 lung = system: NCI-H522 lung
SR leukemia = system: SR leukemia
BT-549 breast = system: BT-549 breast

`O=c1c(Br)cc2c(-c3ccccc3)c3cc(Br)c(O)c(Br)c3oc-2c1Br` was tested, and the TGI (MALME-3M melanoma) was over 100 µM, the TGI (UACC-62 melanoma) was over 100 µM and the TGI (NCI-H23 lung) was over 100 µM. For the same compound, the TGI (NCI/ADR-RES ovarian) was over 100 µM, the TGI (MDA-MB-231 breast) was over 100 µM and the TGI (SF-295 CNS) was over 100 µM. The TGI (LOX IMVI melanoma) was over 100 µM, the TGI (IGROV1 ovarian) was over 100 µM and the TGI (HT29 colon) was 39.4 µM. The TGI (HCC-2998 colon) was over 100 µM, the TGI (PC-3 prostate) was over 100 µM and the TGI (NCI-H460 lung) was over 100 µM. The TGI (U251 CNS) was over 100 µM, the TGI (COLO 205 colon) was over 100 µM and the TGI (CCRF-CEM leukemia) was over 100 µM. The TGI (SK-OV-3 ovarian) was over 100 µM, the TGI (HCT-15 colon) was over 100 µM and the TGI (SK-MEL-5 melanoma) was over 100 µM. The TGI (MDA-N) was over 100 µM, the TGI (HL-60(TB) leukemia) was over 100 µM and the TGI (OVCAR-4 ovarian) was 63.7 µM. It also gave a TGI (MOLT-4 leukemia) of over 100 µM, a TGI (A498 renal) of over 100 µM and a TGI (SF-268 CNS) of over 100 µM. It also gave a TGI (M14 melanoma) of over 100 µM, a TGI (MDA-MB-435) of over 100 µM and a TGI (HOP-92 NSCLC) of over 100 µM. It also gave a TGI (SNB-19 CNS) of over 100 µM, a TGI (SW-620 colon) of over 100 µM and a TGI (OVCAR-5 ovarian) of over 100 µM. For the same compound, the TGI (SN12C renal) was over 100 µM, the TGI (CAKI-1 renal) was over 100 µM and the TGI (T-47D breast) was over 100 µM. For the same compound, the TGI (HCT-116 colon) was over 100 µM, the TGI (KM12 colon) was over 100 µM and the TGI (OVCAR-3 ovarian) was over 100 µM. It also gave a TGI (RPMI-8226 leukemia) of over 100 µM, a TGI (HS 578T breast) of over 100 µM and a TGI (SF-539 CNS) of over 100 µM. It also gave a TGI (DU-145 prostate) of over 100 µM, a TGI (UACC-257 melanoma) of over 100 µM and a TGI (TK-10 renal) of over 100 µM. It also gave a TGI (OVCAR-8 ovarian) of over 100 µM, a TGI (SK-MEL-28 melanoma) of over 100 µM and a TGI (K-562 leukemia) of over 100 µM. It also gave a TGI (NCI-H226 lung) of over 100 µM, a TGI (HOP-62 NSCLC) of over 100 µM and a TGI (A549 NSCLC) of over 100 µM. For the same compound, the TGI (MCF7 breast) was over 100 µM, the TGI (EKVX NSCLC) was over 100 µM and the TGI (UO-31 renal) was over 100 µM. It also gave a TGI (786-0 renal) of over 100 µM, a TGI (ACHN renal) of over 100 µM and a TGI (RXF 393 renal) of over 100 µM.
Work on `CC(C)C(C/C=C1/CC(CO)(COC(=O)c2ccccc2)OC1=O)C(C)C` (stereo not drawn) yielded a TGI (MALME-3M melanoma) of 25.1 µM, a TGI (UACC-62 melanoma) of 67.1 µM and a TGI (NCI-H23 lung) of 34.7 µM. For the same compound, the TGI (SK-MEL-2 melanoma) was over 100 µM, the TGI (NCI/ADR-RES ovarian) was 38.8 µM and the TGI (MDA-MB-231 breast) was 32.8 µM. For the same compound, the TGI (SF-295 CNS) was 25.7 µM, the TGI (LOX IMVI melanoma) was 69.6 µM and the TGI (IGROV1 ovarian) was 38.2 µM. For the same compound, the TGI (HT29 colon) was 36.4 µM, the TGI (SNB-75 CNS) was 20.3 µM and the TGI (HCC-2998 colon) was 40.8 µM. It also gave a TGI (PC-3 prostate) of 28.1 µM, a TGI (NCI-H460 lung) of 45.7 µM and a TGI (U251 CNS) of 36.1 µM. The TGI (COLO 205 colon) was 17.4 µM, the TGI (CCRF-CEM leukemia) was 43.5 µM and the TGI (SK-OV-3 ovarian) was over 100 µM. It also gave a TGI (HCT-15 colon) of 36.9 µM, a TGI (SK-MEL-5 melanoma) of 21.3 µM and a TGI (MDA-N) of 31.2 µM. For the same compound, the TGI (OVCAR-4 ovarian) was 30 µM, the TGI (MOLT-4 leukemia) was 47 µM and the TGI (A498 renal) was 39.7 µM. The TGI (SF-268 CNS) was 31.8 µM, the TGI (M14 melanoma) was 32.2 µM and the TGI (MDA-MB-435) was 95.5 µM. The TGI (HOP-92 NSCLC) was 35.8 µM, the TGI (SNB-19 CNS) was 31.1 µM and the TGI (NCI-H522 lung) was 35 µM. It also gave a TGI (SR leukemia) of over 100 µM, a TGI (SW-620 colon) of 31.9 µM and a TGI (OVCAR-5 ovarian) of 31.2 µM. For the same compound, the TGI (SN12C renal) was 29 µM, the TGI (CAKI-1 renal) was 27.8 µM and the TGI (T-47D breast) was 31.2 µM. It also gave a TGI (HCT-116 colon) of 29.7 µM, a TGI (KM12 colon) of 31.7 µM and a TGI (BT-549 breast) of 33.2 µM. It also gave a TGI (OVCAR-3 ovarian) of 32.2 µM, a TGI (HS 578T breast) of 24.3 µM and a TGI (SF-539 CNS) of 16.1 µM. For the same compound, the TGI (UACC-257 melanoma) was 62.4 µM, the TGI (TK-10 renal) was 32.3 µM and the TGI (OVCAR-8 ovarian) was 48.5 µM. The TGI (SK-MEL-28 melanoma) was 27.8 µM, the TGI (K-562 leukemia) was 48 µM and the TGI (NCI-H226 lung) was 32.4 µM. It also gave a TGI (HOP-62 NSCLC) of 22.4 µM, a TGI (A549 NSCLC) of 26.5 µM and a TGI (MCF7 breast) of 39 µM. The TGI (EKVX NSCLC) was 35.9 µM, the TGI (UO-31 renal) was 31.5 µM and the TGI (786-0 renal) was 23.2 µM. It also gave a TGI (ACHN renal) of 28.2 µM and a TGI (RXF 393 renal) of 31.2 µM.
`Cc1sc(C)c2c1C(=O)CC2N` (stereo not drawn) was tested, and the TGI (MALME-3M melanoma) was 28.4 µM, the TGI (UACC-62 melanoma) was over 100 µM and the TGI (NCI-H23 lung) was over 96.2 µM. The TGI (SK-MEL-2 melanoma) was over 100 µM, the TGI (NCI/ADR-RES ovarian) was over 100 µM and the TGI (MDA-MB-231 breast) was 57 µM. It also gave a TGI (SF-295 CNS) of over 100 µM, a TGI (LOX IMVI melanoma) of 32.2 µM and a TGI (IGROV1 ovarian) of over 69 µM. For the same compound, the TGI (HT29 colon) was over 59.3 µM, the TGI (SNB-75 CNS) was over 83.1 µM and the TGI (HCC-2998 colon) was 35.1 µM. It also gave a TGI (PC-3 prostate) of over 60.6 µM, a TGI (NCI-H460 lung) of over 70.2 µM and a TGI (U251 CNS) of over 100 µM. For the same compound, the TGI (COLO 205 colon) was 40.1 µM, the TGI (CCRF-CEM leukemia) was 6.68 µM and the TGI (SK-OV-3 ovarian) was over 100 µM. For the same compound, the TGI (HCT-15 colon) was over 58.3 µM, the TGI (SK-MEL-5 melanoma) was over 100 µM and the TGI (MDA-N) was over 57.4 µM. It also gave a TGI (HL-60(TB) leukemia) of 22.9 µM, a TGI (OVCAR-4 ovarian) of over 75.6 µM and a TGI (MOLT-4 leukemia) of 23.7 µM. The TGI (A498 renal) was over 100 µM, the TGI (SF-268 CNS) was over 57.3 µM and the TGI (M14 melanoma) was 27.6 µM. It also gave a TGI (MDA-MB-435) of 53.6 µM, a TGI (HOP-92 NSCLC) of 40.7 µM and a TGI (SNB-19 CNS) of over 100 µM. For the same compound, the TGI (NCI-H522 lung) was 10.9 µM, the TGI (SR leukemia) was over 100 µM and the TGI (SW-620 colon) was 26.3 µM. The TGI (OVCAR-5 ovarian) was over 100 µM, the TGI (SN12C renal) was over 58.6 µM and the TGI (CAKI-1 renal) was 28.9 µM. It also gave a TGI (T-47D breast) of over 83 µM, a TGI (HCT-116 colon) of 28.9 µM and a TGI (KM12 colon) of over 46.4 µM. It also gave a TGI (BT-549 breast) of 43.7 µM, a TGI (OVCAR-3 ovarian) of 32.8 µM and a TGI (RPMI-8226 leukemia) of 49.2 µM. The TGI (HS 578T breast) was 98 µM, the TGI (SF-539 CNS) was 14.2 µM and the TGI (DU-145 prostate) was 30.3 µM. It also gave a TGI (UACC-257 melanoma) of 33.3 µM, a TGI (TK-10 renal) of 33.5 µM and a TGI (OVCAR-8 ovarian) of 44.9 µM. It also gave a TGI (SK-MEL-28 melanoma) of over 62.5 µM, a TGI (K-562 leukemia) of over 56.1 µM and a TGI (NCI-H226 lung) of over 54.9 µM. For the same compound, the TGI (HOP-62 NSCLC) was over 100 µM, the TGI (A549 NSCLC) was over 100 µM and the TGI (EKVX NSCLC) was over 100 µM. The TGI (UO-31 renal) was 29.5 µM, the TGI (786-0 renal) was 22.5 µM and the TGI (ACHN renal) was 31.2 µM. It also gave a TGI (RXF 393 renal) of 34.8 µM.
